Measurements: patent US20250333745A1, “METHODS AND COMPOSITIONS FOR TREATMENT OF POLYCYSTIC KIDNEY DISEASE” (Regulus Therapeutics Inc., priority 2016, published 2025)

What was measured:
[1] = tested on: Pcy mice; test: Efficacy in the Pcy model of PKD; format: in vivo, mouse; settings: for BUN (mean) / Cystic Index (mean) / KW/BW Ratio (mean): 25 mg/kg s.c. for oligonucleotides, sacrificed at 15 weeks of age
Excerpt: (§1) Two experimental models of PKD were used to evaluate efficacy. Pkd2-KO mice spontaneously develop polycystic kidney disease, and were used as a model of ADPKD. See Patel et al., PNAS, 2013; 110 (26): 10765-10770. Pcy mice bearing a mutation in Nphp3 spontaneously develop polycystic kidney disease, with a slower progression of disease than that observed in the Pkd2-KO mice. The Pcy model is used as a model of nephronophthisis. See Happe and Peters, Nat. Rev. Nephrol., 2014; 10:587-601.
(§2) Cyst index is a histological measurement of cystic area relative to total kidney area. For this analysis, one kidney was perfused with cold PBS and 4% (wt/vol) paraformaldehyde and then harvested. Kidneys were fixed with 4% paraformaldehyde for 2 hours and then, embedded in paraffin for sectioning. Sagittal sections of kidneys were stained with hematoxylin and eosin (H&E). All image processing steps were automated and took place in freely available and open source software: An R1 script which used functions from the EBImage Bioconductor package2 and the ImageMagick3 suite of image processing tools. Kidney H&E images in Aperio SVS format were converted to TIFF images, and the first frame was retained for image analysis. First, the total kidney section area was calculated using image segmentation. Image segmentation was similarly used to find all internal structures including kidney cyst. A filter was applied to remove all objects less than a mean radius of three pixels. The cystic index is the image area associated with cysts divided by the total kidney areas. Cystic index was separately calculated for longitudinal and transverse kidney sections for each individual animal. Combined cystic index of individual animals were compared for each treatment groups.
RG4326 was tested in the Pcy mouse model. Wild-type mice were used as control group. From four weeks of age, Pcy mice were treated once per week via subcutaneous injection with RG4326 at a dose of 25 mg/kg, tool anti-miR-17 at a dose of 25 mg/kg, control oligonucleotide RG5124 at a dose of 25 mg/kg, or PBS. Each treatment group contained 15 male mice. Three treatments were administered on […] days of age, and weekly thereafter at 6, 7, 8, 9, 10, 11, 12, 13, and 14 weeks of age. Also tested was tolvaptan, a vasopressin V2-receptor antagonist (VRA) that is prescribed to some patients with polycystic kidney disease. Mice were sacrificed at 15 weeks of age. Body weight was recorded. One kidney was extracted and weighed and the other processed for histological analysis to calculate cyst index as described for the study in the Pkhd1/cre; Pkd2^F/F. Blood urea nitrogen (BUN) level and serum creatinine level were measured. Statistical significance was calculated by one-way ANOVA with Dunnett's multiple correction.

[2] = tested on: Pkd2-KO mice; test: Efficacy in the Pkd2-KO model of PKD; format: in vivo, mouse; settings: for BUN (mean) / Cystic Index (mean) / KW/BW Ratio (mean) / Serum Creatinine (mean): 20 mg/kg s.c. on days 10, 11, 12, 19 of age, sacrificed at 28 days
Excerpt: as §1
RG4326 was tested in the Pkd2-KO mouse model of ADPKD. This model is also referred to as the PKD2-KO model. Wild-type mice were used as control mice. An oligonucleotide complementary to a miRNA unrelated to miR-17 was used as a treatment control for specificity (RG5124).
On each of days 10, 11 12, and 19 of age, sex-matched littermates of mice were administered a subcutaneous injection of RG4326 at a dose of 20 mg/kg (n=12), RG5124 at a dose of 20 mg/kg (n=12), tool anti-miR-17 at a dose of 20 mg/kg (n=12), or PBS (n=12). Mice were sacrificed at 28 days of age, and kidney weight, body weight, cyst index, serum creatinine level, and blood urea nitrogen (BUN) level were measured. BUN level is a marker of kidney function. A higher BUN level correlates with poorer kidney function, thus a reduction in BUN level is an indicator of reduced kidney injury and damage and improved function. Statistical significance was calculated by one-way ANOVA with Dunnett's multiple correction.
as §2

[3] = 20 mg/kg, not statistically significant

Which “efficacy on KW/BW ratio, BUN or cyst index (in words)” value [1] does the source give for “5′-CTGCACTGTAAGCACTTTG-3′ (all phosphorothioate, sugars by position and methylation of C not given here; DNA, 2'-MOE and S-cEt sugars) [Tool anti-miR-17, reference compound]” here?
Its value is “did not result in statistically significant reductions”.

And the “effect on KW/BW ratio, BUN and cyst index (in words)” value ([2]; 20 mg/kg)?
The value was “no statistically significant changes were observed”.

How did the “BUN (mean)” value [1] turn out when `COC1C(OP(=O)(S)OC[C@H]2O[C@@H](n3cnc4c(N)ncnc43)C(F)C2OP(=O)(S)OC[C@H]2O[C@@H](n3ccc(N)nc3=O)C(F)C2OP(=O)(S)OC[C@H]2O[C@@H](n3ccc(=O)[nH]c3=O)C(F)C2OP(=O)(S)OC[C@H]2O[C@@H](n3ccc(=O)[nH]c3=O)C(OC)C2OP(=O)(S)OC[C@]23O[C@@H](n4ccc(=O)[nH]c4=O)C(O[C@H]2C)C3OP(=O)(S)OC[C@]23O[C@@H](n4cnc5c(=O)[nH]c(N)nc54)C(O[C@H]2C)C3O)[C@@H](COP(=O)(S)OC2C3O[C@@H](C)[C@]2(COP(=O)(S)OC2C4O[C@@H](C)[C@]2(CO)O[C@H]4n2cnc4c(N)ncnc42)O[C@H]3n2cnc3c(=O)[nH]c(N)nc32)O[C@H]1n1ccc(N)nc1=O` (stereo in doubt) [RG4326, ASGSCMAFCFUFUMUSGS] was run?
The value was 19.7.

And the “Cystic Index (mean)” value [1]?
Its value is 0.16.

What about the “KW/BW Ratio (mean)” value [1] of the same molecule?
The value was 18.1.

What about the “mean KW/BW ratio lower relative to PBS-treated mice” value ([1]; 25 mg/kg, p=0.0055) of the same molecule?
Its value is 19%.

What about the “BUN reduced relative to PBS-treated mice” value ([1]; 25 mg/kg, p=0.0070) of the same molecule?
The value was 16%.

What about the “cyst index reduced compared to PBS” value ([1]; 25 mg/kg, p=0.016) of the same molecule?
Its value is 34%.

What about the “BUN (mean)” value [2] of the same molecule?
Its value is 72.92 mg/dL.

And the “Cystic Index (mean)” value [2]?
Its value is 50.3.

What about the “KW/BW Ratio (mean)” value [2] of the same molecule?
The value was 40.98 mg/g.

And the “Serum Creatinine (mean)” value [2]?
Its value is 0.26 mg/dL.

And the “Mean serum creatinine levels lower than in PBS mice” value [2, 3]?
The value was 18%.

What about the “mean reduction in cyst index compared to PBS” value [2, 3] of the same molecule?
The value was 12%.

And the “mean KW/BW ratio lower than in PBS mice” value ([2]; 20 mg/kg, p=0.0099)?
Its value is 29%.

“ASCSAMAFUFGFCMASCS [RG5124, reference compound]” was tested. Which “efficacy on KW/BW ratio, BUN or cyst index (in words)” value [1] did it give?
Its value is “did not result in statistically significant reductions”.

And the “BUN (mean)” value [1]?
Its value is 21.2.

And the “Cystic Index (mean)” value [1]?
The value was 0.23.

And the “KW/BW Ratio (mean)” value [1]?
Its value is 21.4.

What about the “effect on KW/BW ratio, BUN and cyst index (in words)” value ([2]; 20 mg/kg) of the same molecule?
The value was “did not reduce kidney weight to body weight ratio, cyst index, or BUN”.

And the “BUN (mean)” value [2]?
Its value is 86.67 mg/dL.

What about the “Cystic Index (mean)” value [2] of the same molecule?
Its value is 56.67.

What about the “KW/BW Ratio (mean)” value [2] of the same molecule?
The value was 55.35 mg/g.

And the “Serum Creatinine (mean)” value [2]?
Its value is 0.31 mg/dL.
